Source: the supplement of paper PMC10307832

Assays:
Experiment in all cases: relative viability (nuclei count vs DMSO), 5 days (fraction); higher = more cells survive
Decitabine + Pictilisib = compound: Nc1ncn([C@H]2C[C@H](O)[C@@H](CO)O2)c(=O)n1 [Decitabine] + CS(=O)(=O)N1CCN(Cc2cc3nc(-c4cccc5[nH]ncc45)nc(N4CCOCC4)c3s2)CC1 [Pictilisib] (partner 1 µM)
Summary of the method: (§1)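 Nuclei were stained with Hoechst during a one-step fixation (final 0.05% Triton X-100, 1% formaldehyde, 1 ug/ml Hoechst) carried out 5 days after dosing, then counted on 4× images. The cells, lung cancer lines in 1536-well plates, had been dosed by pin tool the day after seeding with one drug alone or a fixed anchor-drug dose plus five library-drug doses (not always all listed) in √10 steps. Relative viability is the nuclei count in treated wells divided by that in vehicle wells, and each value is the median of duplicate plates.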

Decitabine + Linsitinib = compound: Nc1ncn([C@H]2C[C@H](O)[C@@H](CO)O2)c(=O)n1 [Decitabine] + C[C@]1(O)C[C@@H](c2nc(-c3ccc4ccc(-c5ccccc5)nc4c3)c3c(N)nccn32)C1 [Linsitinib] (partner 1 µM)
Summary of the method: as §1

[1] = compound: O=C(C[C@H]1NCCC[C@@H]1O)Cn1cnc2cc(Br)c(Cl)cc2c1=O (racemic) [Halofuginone] + Nc1nc2[nH]cc(CCc3ccc(C(=O)N[C@@H](CCC(=O)O)C(=O)O)cc3)c2c(=O)[nH]1 [Pemetrexed] (partner 0.2 µM)
Summary of the method: as §1

Cediranib + AZD7762 = compound: COc1cc2c(Oc3ccc4[nH]c(C)cc4c3F)ncnc2cc1OCCCN1CCCC1 [Cediranib] + NC(=O)Nc1cc(-c2cccc(F)c2)sc1C(=O)N[C@H]1CCCNC1 [AZD7762] (partner 0.2 µM)
Summary of the method: as §1

NCI-H838
relative viability (Decitabine + Pictilisib; first compound 0.04 µM): 0.415
relative viability (Decitabine + Pictilisib; first compound 0.1265 µM): 0.357
relative viability (Decitabine + Pictilisib; first compound 0.4 µM): 0.308
relative viability (Decitabine + Pictilisib; first compound 1.265 µM): 0.24
relative viability (Decitabine + Pictilisib; first compound 4 µM): 0.226
relative viability (Decitabine + Linsitinib; first compound 0.04 µM): 0.798
relative viability (Decitabine + Linsitinib; first compound 0.1265 µM): 0.561
relative viability (Decitabine + Linsitinib; first compound 0.4 µM): 0.333
relative viability (Decitabine + Linsitinib; first compound 1.265 µM): 0.318
relative viability (Decitabine + Linsitinib; first compound 4 µM): 0.264
relative viability ([1]; first compound 0.001 µM): 0.266
relative viability ([1]; first compound 0.003162 µM): 0.256
relative viability ([1]; first compound 0.01 µM): 0.249
relative viability ([1]; first compound 0.03162 µM): 0.189
relative viability ([1]; first compound 0.1 µM): 0.128
relative viability (Cediranib + AZD7762; first compound 0.04 µM): 0.978
relative viability (Cediranib + AZD7762; first compound 0.1265 µM): 0.934
relative viability (Cediranib + AZD7762; first compound 0.4 µM): 0.934
relative viability (Cediranib + AZD7762; first compound 1.265 µM): 0.896
relative viability (Cediranib + AZD7762; first compound 4 µM): 0.975

NCI-H2347
relative viability (Decitabine + Pictilisib; first compound 0.04 µM): 0.59
relative viability (Decitabine + Pictilisib; first compound 0.1265 µM): 0.599
relative viability (Decitabine + Pictilisib; first compound 0.4 µM): 0.63
relative viability (Decitabine + Pictilisib; first compound 1.265 µM): 0.495
relative viability (Decitabine + Pictilisib; first compound 4 µM): 0.554
relative viability (Decitabine + Linsitinib; first compound 0.04 µM): 0.936
relative viability (Decitabine + Linsitinib; first compound 0.1265 µM): 0.935
relative viability (Decitabine + Linsitinib; first compound 0.4 µM): 0.725
relative viability (Decitabine + Linsitinib; first compound 1.265 µM): 0.639
relative viability (Decitabine + Linsitinib; first compound 4 µM): 0.625
relative viability ([1]; first compound 0.001 µM): 0.412
relative viability ([1]; first compound 0.003162 µM): 0.445
relative viability ([1]; first compound 0.01 µM): 0.432
relative viability ([1]; first compound 0.03162 µM): 0.43
relative viability ([1]; first compound 0.1 µM): 0.429
relative viability (Cediranib + AZD7762; first compound 0.04 µM): 0.808
relative viability (Cediranib + AZD7762; first compound 0.1265 µM): 0.808
relative viability (Cediranib + AZD7762; first compound 0.4 µM): 0.755
relative viability (Cediranib + AZD7762; first compound 1.265 µM): 0.746
relative viability (Cediranib + AZD7762; first compound 4 µM): 0.691

NCI-H441
relative viability (Decitabine + Pictilisib; first compound 0.04 µM): 0.28
relative viability (Decitabine + Pictilisib; first compound 0.1265 µM): 0.306
relative viability (Decitabine + Pictilisib; first compound 0.4 µM): 0.286
relative viability (Decitabine + Pictilisib; first compound 1.265 µM): 0.205
relative viability (Decitabine + Pictilisib; first compound 4 µM): 0.179
relative viability (Decitabine + Linsitinib; first compound 0.04 µM): 0.282
relative viability (Decitabine + Linsitinib; first compound 0.1265 µM): 0.407
relative viability (Decitabine + Linsitinib; first compound 0.4 µM): 0.272
relative viability (Decitabine + Linsitinib; first compound 1.265 µM): 0.19
relative viability (Decitabine + Linsitinib; first compound 4 µM): 0.165
relative viability ([1]; first compound 0.001 µM): 0.28
relative viability ([1]; first compound 0.003162 µM): 0.263
relative viability ([1]; first compound 0.01 µM): 0.205
relative viability ([1]; first compound 0.03162 µM): 0.261
relative viability ([1]; first compound 0.1 µM): 0.246
relative viability (Cediranib + AZD7762; first compound 0.04 µM): 1.26
relative viability (Cediranib + AZD7762; first compound 0.1265 µM): 1.25
relative viability (Cediranib + AZD7762; first compound 0.4 µM): 1.07
relative viability (Cediranib + AZD7762; first compound 1.265 µM): 1.16
relative viability (Cediranib + AZD7762; first compound 4 µM): 1.18

NCI-H1944
relative viability (Decitabine + Pictilisib; first compound 0.04 µM): 0.353
relative viability (Decitabine + Pictilisib; first compound 0.1265 µM): 0.424
relative viability (Decitabine + Pictilisib; first compound 0.4 µM): 0.369
relative viability (Decitabine + Pictilisib; first compound 1.265 µM): 0.319
relative viability (Decitabine + Pictilisib; first compound 4 µM): 0.299
relative viability (Decitabine + Linsitinib; first compound 0.04 µM): 1.06
relative viability (Decitabine + Linsitinib; first compound 0.1265 µM): 0.962
relative viability (Decitabine + Linsitinib; first compound 0.4 µM): 0.934
relative viability (Decitabine + Linsitinib; first compound 1.265 µM): 0.667
relative viability (Decitabine + Linsitinib; first compound 4 µM): 0.642
relative viability ([1]; first compound 0.001 µM): 0.611
relative viability ([1]; first compound 0.003162 µM): 0.62
relative viability ([1]; first compound 0.01 µM): 0.579
relative viability ([1]; first compound 0.03162 µM): 0.586
relative viability ([1]; first compound 0.1 µM): 0.496
relative viability (Cediranib + AZD7762; first compound 0.04 µM): 0.487
relative viability (Cediranib + AZD7762; first compound 0.1265 µM): 0.586
relative viability (Cediranib + AZD7762; first compound 0.4 µM): 0.481
relative viability (Cediranib + AZD7762; first compound 1.265 µM): 0.408
relative viability (Cediranib + AZD7762; first compound 4 µM): 0.582

NCI-H2405
relative viability (Decitabine + Pictilisib; first compound 0.04 µM): 0.457
relative viability (Decitabine + Pictilisib; first compound 0.1265 µM): 0.453
relative viability (Decitabine + Pictilisib; first compound 0.4 µM): 0.562
relative viability (Decitabine + Pictilisib; first compound 1.265 µM): 0.406
relative viability (Decitabine + Pictilisib; first compound 4 µM): 0.298
relative viability (Decitabine + Linsitinib; first compound 0.04 µM): 0.838
relative viability (Decitabine + Linsitinib; first compound 0.1265 µM): 0.891
relative viability (Decitabine + Linsitinib; first compound 0.4 µM): 0.74
relative viability (Decitabine + Linsitinib; first compound 1.265 µM): 0.548
relative viability (Decitabine + Linsitinib; first compound 4 µM): 0.465
relative viability ([1]; first compound 0.001 µM): 1.14
relative viability ([1]; first compound 0.003162 µM): 1.07
relative viability ([1]; first compound 0.01 µM): 0.978
relative viability ([1]; first compound 0.03162 µM): 0.989
relative viability ([1]; first compound 0.1 µM): 0.638
relative viability (Cediranib + AZD7762; first compound 0.04 µM): 0.749
relative viability (Cediranib + AZD7762; first compound 0.1265 µM): 1.31
relative viability (Cediranib + AZD7762; first compound 0.4 µM): 0.594
relative viability (Cediranib + AZD7762; first compound 1.265 µM): 0.864
relative viability (Cediranib + AZD7762; first compound 4 µM): 0.803

HCC-15
relative viability (Decitabine + Pictilisib; first compound 0.04 µM): 0.742
relative viability (Decitabine + Pictilisib; first compound 0.1265 µM): 0.767
relative viability (Decitabine + Pictilisib; first compound 0.4 µM): 0.288
relative viability (Decitabine + Pictilisib; first compound 1.265 µM): 0.484
relative viability (Decitabine + Pictilisib; first compound 4 µM): 0.411
relative viability (Decitabine + Linsitinib; first compound 0.04 µM): 0.777
relative viability (Decitabine + Linsitinib; first compound 0.1265 µM): 0.772
relative viability (Decitabine + Linsitinib; first compound 0.4 µM): 0.562
relative viability (Decitabine + Linsitinib; first compound 1.265 µM): 0.51
relative viability (Decitabine + Linsitinib; first compound 4 µM): 0.434
relative viability ([1]; first compound 0.001 µM): 0.214
relative viability ([1]; first compound 0.003162 µM): 0.248
relative viability ([1]; first compound 0.01 µM): 0.226
relative viability ([1]; first compound 0.03162 µM): 0.231
relative viability ([1]; first compound 0.1 µM): 0.235
relative viability (Cediranib + AZD7762; first compound 0.04 µM): 1.39
relative viability (Cediranib + AZD7762; first compound 0.4 µM): 1.18
relative viability (Cediranib + AZD7762; first compound 1.265 µM): 1.35
relative viability (Cediranib + AZD7762; first compound 4 µM): 1.11
